Results as given in ChEMBL document CHEMBL1782016, “Improvement in aqueous solubility in small molecule drug discovery programs by disruption of molecular planarity and symmetry” (J Med Chem, 2011).
pIC50: −log10 of the molar value. Values after ≈ are worked out from the molar mass of the structure shown. Active and inactive are the calls of the source. The calls are words filed in the database; no cut-off is given here.

System: not listed separately
Experiment: Aqueous solubility of the compound in water
Details: buffer

Point of comparison: `O=C(NC[C@H](NS(=O)(=O)c1ccccc1)C(=O)O)c1ccc(N2CCC[C@H](N=C3NCCCN3)C2)cc1`, solubility 3500 µg/mL (≈ 6620 µM). Against it:
- O=C(NC[C@H](NS(=O)(=O)c1ccccc1)C(=O)O)c1ccc(N2CCC(NC3=NCCCN3)CC2)c(F)c1 — 5.8-fold lower, 600 µg/mL (≈ 1100 µM)

Same assay, conditions: water

Point of comparison: `Clc1ccc(-c2ccccc2Cl)cc1`, solubility 637 µg/mL (≈ 2860 µM). Against it:
- O=C(NC[C@H](NS(=O)(=O)c1ccccc1)C(=O)O)c1ccc(N2CCC[C@H](NC3=NCCCN3)C2)cc1F — 4.4-fold higher, 2800 µg/mL (≈ 5120 µM)
- O=C(NC[C@H](NS(=O)(=O)c1ccc(O)cc1)C(=O)O)c1ccc(N2CCC(NC3=NCCCN3)CC2)c(F)c1 — 6.4-fold lower, 100 µg/mL (≈ 178 µM)
- O=C(NC[C@H](NS(=O)(=O)c1ccccc1)C(=O)O)c1ccc(N2CCC(NC3=NCCCN3)CC2)cc1 — lower, < 100 µg/mL
- O=C(NC[C@H](NS(=O)(=O)c1cccs1)C(=O)O)c1ccc(N2CCC[C@H](NC3=NCCCN3)C2)cc1 — 5.2-fold higher, 3300 µg/mL (≈ 6170 µM)

Target: T1, Peroxisome proliferator-activated receptor alpha (Homo sapiens) (UniProt Q07869)
T1 sequence (whole entry): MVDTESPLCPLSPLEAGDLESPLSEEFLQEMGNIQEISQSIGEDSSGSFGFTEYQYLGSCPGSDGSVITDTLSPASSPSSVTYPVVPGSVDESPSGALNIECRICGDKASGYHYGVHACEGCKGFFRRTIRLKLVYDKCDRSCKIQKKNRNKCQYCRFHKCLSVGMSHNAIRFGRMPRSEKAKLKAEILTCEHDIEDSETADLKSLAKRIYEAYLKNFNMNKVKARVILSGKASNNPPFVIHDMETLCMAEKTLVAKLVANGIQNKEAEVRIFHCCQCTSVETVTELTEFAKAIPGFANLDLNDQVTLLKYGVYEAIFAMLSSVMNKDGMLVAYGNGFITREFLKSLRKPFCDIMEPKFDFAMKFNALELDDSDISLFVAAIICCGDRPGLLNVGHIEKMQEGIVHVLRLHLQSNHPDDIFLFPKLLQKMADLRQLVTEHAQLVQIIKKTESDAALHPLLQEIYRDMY
Experiment: Agonist activity at PPARalpha at 1 uM
Assay type: functional
Details: not given

For `CCCCOc1ccc(-c2ccc(C(=O)O)cc2C)cc1CNC(=O)c1ccc(C(F)(F)F)cc1F`, the Activity was “inactive”.
With `CCCCOc1ccc(-c2ccc(C(=O)O)cc2F)cc1CNC(=O)c1ccc(C(F)(F)F)cc1F` the Activity was “inactive”.
With `CCCCOc1ccc(-c2c(F)ccc(C(=O)O)c2F)cc1CNC(=O)c1ccc(C(F)(F)F)cc1F` the Activity was “inactive”.
For `CCCCOc1ccc(-c2ccc(C(=O)O)cc2)cc1CNC(=O)c1ccc(C(F)(F)F)cc1F`, the Activity was “inactive”.

System: not listed separately
Experiment: Aqueous solubility of the compound
Assay type: physicochemical
Details: buffer

Point of comparison: `O=C(O)Cc1ccc(CNC(=O)c2cc(-c3ccc(-c4ccccc4O)cc3)cs2)cc1`, solubility 134 µg/mL (≈ 302 µM). Against it:
- O=c1cc(-c2ccccc2)oc2ccc3ccccc3c12 [BETA-NAPHTHOFLAVONE] — lower, < 0.15 µg/mL
- O=C(O)Cc1ccc(CNC(=O)c2cc(-c3ccc(-c4ccccc4)cc3)cs2)cc1 — lower, < 1 µg/mL

System: not listed separately
Experiment: Oral bioavailability in rat
Details: in vivo

With `CS(=O)(=O)O.O=c1c2ccc(Cl)cc2[nH]c2c(O)nn(Cc3ccncc3)c(=O)c12` the bioavailability was 5%.

Target: T2, Integrin alpha-V/beta-3 (Homo sapiens, UniProt P05106+P06756)
Experiment: Antagonist activity at alphavbeta3 integrin receptor human VSMC assessed as inhibition of vitronectin-induced cell adhesion
Assay type: functional, cell-based
Details: not given

T2 sequence (P05106 27-788 limits assumed): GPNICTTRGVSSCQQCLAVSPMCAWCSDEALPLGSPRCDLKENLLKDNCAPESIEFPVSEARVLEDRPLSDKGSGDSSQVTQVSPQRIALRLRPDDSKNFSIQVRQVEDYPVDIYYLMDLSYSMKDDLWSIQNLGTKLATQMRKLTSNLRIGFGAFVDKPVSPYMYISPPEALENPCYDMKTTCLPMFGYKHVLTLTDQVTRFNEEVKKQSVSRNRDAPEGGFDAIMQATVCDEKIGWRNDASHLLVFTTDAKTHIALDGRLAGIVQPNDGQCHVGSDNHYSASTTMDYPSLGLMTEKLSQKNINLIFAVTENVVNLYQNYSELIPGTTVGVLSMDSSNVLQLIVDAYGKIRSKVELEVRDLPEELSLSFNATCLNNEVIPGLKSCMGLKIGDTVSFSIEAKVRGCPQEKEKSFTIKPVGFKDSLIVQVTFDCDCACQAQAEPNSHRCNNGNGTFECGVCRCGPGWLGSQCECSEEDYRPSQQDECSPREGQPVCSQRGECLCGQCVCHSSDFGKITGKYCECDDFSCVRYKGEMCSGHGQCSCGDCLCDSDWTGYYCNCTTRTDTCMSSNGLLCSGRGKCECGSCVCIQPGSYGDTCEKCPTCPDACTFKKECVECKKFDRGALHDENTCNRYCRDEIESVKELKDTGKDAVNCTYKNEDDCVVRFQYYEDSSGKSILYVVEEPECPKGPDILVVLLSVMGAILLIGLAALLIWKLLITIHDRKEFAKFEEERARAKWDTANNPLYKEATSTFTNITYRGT
T2 sequence (P06756 31-889 limits assumed): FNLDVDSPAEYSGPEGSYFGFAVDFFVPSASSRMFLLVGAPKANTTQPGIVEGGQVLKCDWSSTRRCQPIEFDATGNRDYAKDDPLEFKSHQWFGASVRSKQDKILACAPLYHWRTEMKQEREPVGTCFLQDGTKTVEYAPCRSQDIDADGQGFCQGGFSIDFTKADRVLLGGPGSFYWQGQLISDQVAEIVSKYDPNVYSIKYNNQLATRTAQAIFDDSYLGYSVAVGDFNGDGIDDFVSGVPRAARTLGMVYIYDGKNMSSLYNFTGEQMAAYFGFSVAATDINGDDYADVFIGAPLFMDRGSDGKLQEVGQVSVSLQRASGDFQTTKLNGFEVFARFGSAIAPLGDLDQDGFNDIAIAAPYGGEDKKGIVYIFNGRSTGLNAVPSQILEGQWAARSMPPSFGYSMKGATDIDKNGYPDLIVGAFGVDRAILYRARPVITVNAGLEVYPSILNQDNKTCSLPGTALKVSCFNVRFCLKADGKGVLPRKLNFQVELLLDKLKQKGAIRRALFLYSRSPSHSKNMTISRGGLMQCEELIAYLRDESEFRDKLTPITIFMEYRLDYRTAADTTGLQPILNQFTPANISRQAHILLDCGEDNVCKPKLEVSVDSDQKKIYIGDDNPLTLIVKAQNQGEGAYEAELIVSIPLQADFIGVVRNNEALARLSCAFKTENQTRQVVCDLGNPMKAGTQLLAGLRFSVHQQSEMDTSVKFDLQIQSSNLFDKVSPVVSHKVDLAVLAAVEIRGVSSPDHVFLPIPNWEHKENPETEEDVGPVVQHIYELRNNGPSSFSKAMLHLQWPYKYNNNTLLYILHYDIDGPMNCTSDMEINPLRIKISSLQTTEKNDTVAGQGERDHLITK
T2 sequence (P06756 891-1048 limits assumed): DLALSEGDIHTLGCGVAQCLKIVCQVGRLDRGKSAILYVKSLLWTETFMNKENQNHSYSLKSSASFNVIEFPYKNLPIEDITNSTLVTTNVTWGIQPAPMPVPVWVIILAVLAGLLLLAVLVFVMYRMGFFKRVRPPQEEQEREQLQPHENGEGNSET

Point of comparison: `O=C(NC[C@H](NS(=O)(=O)c1cccs1)C(=O)O)c1ccc(N2CCC[C@H](NC3=NCCCN3)C2)cc1`, pIC50 7.28. Against it:
- COc1cc(C(=O)NC[C@H](NS(=O)(=O)c2ccccc2)C(=O)O)ccc1N1CCC(NC2=NCCCN2)CC1 — 0.32 log units lower, 6.96
- O=C(NC[C@H](NS(=O)(=O)c1ccccc1)C(=O)O)c1ccc(N2CCC[C@H](NC3=NCCCN3)C2)cc1F — 0.52 log units higher, 7.80
- O=C(NC[C@H](NS(=O)(=O)c1ccc(O)cc1)C(=O)O)c1ccc(N2CCC(NC3=NCCCN3)CC2)c(O)c1 — 0.87 log units lower, 6.41
- O=C(NC[C@H](NS(=O)(=O)c1ccc(O)cc1)C(=O)O)c1ccc(N2CCC(NC3=NCCCN3)CC2)c(F)c1 — the same, 7.28
- O=C(O)c1ccc(S(=O)(=O)N[C@@H](CNC(=O)c2ccc(N3CCC(NC4=NCCCN4)CC3)c(F)c2)C(=O)O)cc1 — 1.10 log units lower, 6.18
- O=C(NC[C@H](NS(=O)(=O)c1ccccc1)C(=O)O)c1ccc(N2CCC(NC3=NCCCN3)CC2)cc1 — 0.56 log units lower, 6.72
- O=C(NC[C@H](NS(=O)(=O)c1ccccc1)C(=O)O)c1ccc(N2CCC[C@H](N=C3NCCCN3)C2)cc1 — 0.23 log units higher, 7.51
- O=C(NC[C@H](NS(=O)(=O)c1ccccc1)C(=O)O)c1ccc(N2CCC(NC3=NCCCN3)CC2)c(Cl)c1 — within 0.2 log units, 7.14
- O=C(NC[C@H](NS(=O)(=O)c1ccccc1)C(=O)O)c1ccc(N2CCC(NC3=NCCCN3)CC2)c(O)c1 — 1.00 log units lower, 6.28
- O=C(NC[C@H](NS(=O)(=O)c1ccccc1)C(=O)O)c1ccc(N2CCC(NC3=NCCCN3)CC2)c(F)c1 — within 0.2 log units, 7.32

System: not listed separately
Experiment: Aqueous solubility of the compound at pH 7.4
Assay type: physicochemical
Details: buffer

`CC(c1ccncc1)n1[nH]c(=O)c2[nH]c3cc(Cl)ccc3c(=O)c2c1=O.CS(=O)(=O)O` (stereo not drawn) showed a solubility greater than 290 µg/mL.

System: not listed separately
Experiment: Antiplatelet activity in human platelet rich plasma assessed as inhibition of platelet aggregation
Assay type: functional
Details: not given

Point of comparison: `O=C(NC[C@H](NS(=O)(=O)c1ccc(O)cc1)C(=O)O)c1ccc(N2CCC(NC3=NCCCN3)CC2)c(F)c1`, pIC50 6.64. Against it:
- COc1cc(C(=O)NC[C@H](NS(=O)(=O)c2ccccc2)C(=O)O)ccc1N1CCC(NC2=NCCCN2)CC1 — 0.25 log units higher, 6.89
- O=C(NC[C@H](NS(=O)(=O)c1ccccc1)C(=O)O)c1ccc(N2CCC[C@H](NC3=NCCCN3)C2)cc1F — within 0.2 log units, 6.54
- O=C(NC[C@H](NS(=O)(=O)c1ccc(O)cc1)C(=O)O)c1ccc(N2CCC(NC3=NCCCN3)CC2)c(O)c1 — 0.35 log units lower, 6.29
- O=C(O)c1ccc(S(=O)(=O)N[C@@H](CNC(=O)c2ccc(N3CCC(NC4=NCCCN4)CC3)c(F)c2)C(=O)O)cc1 — 0.61 log units lower, 6.03
- O=C(NC[C@H](NS(=O)(=O)c1ccccc1)C(=O)O)c1ccc(N2CCC(NC3=NCCCN3)CC2)cc1 — within 0.2 log units, 6.54
- O=C(NC[C@H](NS(=O)(=O)c1cccs1)C(=O)O)c1ccc(N2CCC[C@H](NC3=NCCCN3)C2)cc1 — 0.36 log units higher, 7.00
- O=C(NC[C@H](NS(=O)(=O)c1ccccc1)C(=O)O)c1ccc(N2CCC[C@H](N=C3NCCCN3)C2)cc1 — 0.44 log units higher, 7.08
- O=C(NC[C@H](NS(=O)(=O)c1ccccc1)C(=O)O)c1ccc(N2CCC(NC3=NCCCN3)CC2)c(Cl)c1 — 0.41 log units higher, 7.05
- O=C(NC[C@H](NS(=O)(=O)c1ccccc1)C(=O)O)c1ccc(N2CCC(NC3=NCCCN3)CC2)c(O)c1 — within 0.2 log units, 6.77
- O=C(NC[C@H](NS(=O)(=O)c1ccccc1)C(=O)O)c1ccc(N2CCC(NC3=NCCCN3)CC2)c(F)c1 — 0.79 log units higher, 7.43

Target: Integrin alpha-IIb/beta-3 (Homo sapiens, UniProt P05106+P08514)
Experiment: Antagonist activity at alpha2bbeta3 integrin receptor
Assay type: functional
Details: not given

Chain of Integrin alpha-IIb/beta-3 (P05106 27-788 limits assumed): as the sequence (P05106 27-788 limits assumed) above
Chain of Integrin alpha-IIb/beta-3 (P08514 32-887 limits assumed): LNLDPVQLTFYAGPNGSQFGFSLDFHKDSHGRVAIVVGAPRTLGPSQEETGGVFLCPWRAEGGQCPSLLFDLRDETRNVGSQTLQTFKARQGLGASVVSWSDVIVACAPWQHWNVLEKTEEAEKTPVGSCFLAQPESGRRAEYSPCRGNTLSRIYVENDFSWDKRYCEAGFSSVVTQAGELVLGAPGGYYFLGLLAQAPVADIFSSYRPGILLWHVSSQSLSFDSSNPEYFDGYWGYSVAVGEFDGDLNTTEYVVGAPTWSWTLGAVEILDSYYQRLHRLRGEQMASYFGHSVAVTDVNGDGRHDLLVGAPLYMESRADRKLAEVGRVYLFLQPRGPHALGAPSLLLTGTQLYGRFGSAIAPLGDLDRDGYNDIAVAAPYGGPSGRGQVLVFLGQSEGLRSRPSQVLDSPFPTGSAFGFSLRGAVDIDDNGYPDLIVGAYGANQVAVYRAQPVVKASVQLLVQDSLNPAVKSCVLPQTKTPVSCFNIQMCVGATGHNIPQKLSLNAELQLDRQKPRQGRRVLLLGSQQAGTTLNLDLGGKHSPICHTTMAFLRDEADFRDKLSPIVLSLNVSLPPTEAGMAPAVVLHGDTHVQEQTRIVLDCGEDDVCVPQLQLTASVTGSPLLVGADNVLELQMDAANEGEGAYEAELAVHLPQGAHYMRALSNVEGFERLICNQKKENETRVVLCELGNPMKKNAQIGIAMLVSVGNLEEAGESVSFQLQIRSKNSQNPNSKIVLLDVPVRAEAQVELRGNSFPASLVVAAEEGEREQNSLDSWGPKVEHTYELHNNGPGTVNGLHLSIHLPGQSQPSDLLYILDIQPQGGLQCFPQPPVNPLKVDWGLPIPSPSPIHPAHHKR
Chain of Integrin alpha-IIb/beta-3 (P08514 891-1039 limits assumed): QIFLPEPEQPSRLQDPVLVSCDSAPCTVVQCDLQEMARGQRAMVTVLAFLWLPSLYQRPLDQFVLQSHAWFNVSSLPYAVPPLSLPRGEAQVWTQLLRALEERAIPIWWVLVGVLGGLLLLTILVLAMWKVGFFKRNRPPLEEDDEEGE

Point of comparison: `O=C(NC[C@H](NS(=O)(=O)c1ccccc1)C(=O)O)c1ccc(N2CCC[C@H](NC3=NCCCN3)C2)cc1F`, pIC50 9.11. Against it:
- COc1cc(C(=O)NC[C@H](NS(=O)(=O)c2ccccc2)C(=O)O)ccc1N1CCC(NC2=NCCCN2)CC1 — 0.25 log units higher, 9.36
- O=C(NC[C@H](NS(=O)(=O)c1ccc(O)cc1)C(=O)O)c1ccc(N2CCC(NC3=NCCCN3)CC2)c(O)c1 — within 0.2 log units, 9.03
- O=C(NC[C@H](NS(=O)(=O)c1ccc(O)cc1)C(=O)O)c1ccc(N2CCC(NC3=NCCCN3)CC2)c(F)c1 — 0.63 log units higher, 9.74
- O=C(O)c1ccc(S(=O)(=O)N[C@@H](CNC(=O)c2ccc(N3CCC(NC4=NCCCN4)CC3)c(F)c2)C(=O)O)cc1 — within 0.2 log units, 8.92
- O=C(NC[C@H](NS(=O)(=O)c1ccccc1)C(=O)O)c1ccc(N2CCC(NC3=NCCCN3)CC2)cc1 — 0.59 log units lower, 8.52
- O=C(NC[C@H](NS(=O)(=O)c1cccs1)C(=O)O)c1ccc(N2CCC[C@H](NC3=NCCCN3)C2)cc1 — 0.29 log units higher, 9.40
- O=C(NC[C@H](NS(=O)(=O)c1ccccc1)C(=O)O)c1ccc(N2CCC[C@H](N=C3NCCCN3)C2)cc1 — within 0.2 log units, 9.25
- O=C(NC[C@H](NS(=O)(=O)c1ccccc1)C(=O)O)c1ccc(N2CCC(NC3=NCCCN3)CC2)c(Cl)c1 — 1.53 log units higher, 10.64
- O=C(NC[C@H](NS(=O)(=O)c1ccccc1)C(=O)O)c1ccc(N2CCC(NC3=NCCCN3)CC2)c(O)c1 — within 0.2 log units, 9.01
- O=C(NC[C@H](NS(=O)(=O)c1ccccc1)C(=O)O)c1ccc(N2CCC(NC3=NCCCN3)CC2)c(F)c1 — 0.57 log units higher, 9.68

Target: T2, Integrin alpha-V/beta-3
Experiment: Antagonist activity at alphavbeta3 integrin receptor
Assay type: functional
Details: not given

Point of comparison: `O=C(NC[C@H](NS(=O)(=O)c1ccccc1)C(=O)O)c1ccc(N2CCC[C@H](NC3=NCCCN3)C2)cc1F`, pIC50 9.64. Against it:
- O=C(NC[C@H](NS(=O)(=O)c1ccc(O)cc1)C(=O)O)c1ccc(N2CCC(NC3=NCCCN3)CC2)c(O)c1 — within 0.2 log units, 9.52
- O=C(NC[C@H](NS(=O)(=O)c1ccc(O)cc1)C(=O)O)c1ccc(N2CCC(NC3=NCCCN3)CC2)c(F)c1 — 0.21 log units higher, 9.85
- O=C(O)c1ccc(S(=O)(=O)N[C@@H](CNC(=O)c2ccc(N3CCC(NC4=NCCCN4)CC3)c(F)c2)C(=O)O)cc1 — 0.53 log units lower, 9.11
- O=C(NC[C@H](NS(=O)(=O)c1ccccc1)C(=O)O)c1ccc(N2CCC(NC3=NCCCN3)CC2)cc1 — 0.75 log units lower, 8.89
- O=C(NC[C@H](NS(=O)(=O)c1cccs1)C(=O)O)c1ccc(N2CCC[C@H](NC3=NCCCN3)C2)cc1 — within 0.2 log units, 9.60
- O=C(NC[C@H](NS(=O)(=O)c1ccccc1)C(=O)O)c1ccc(N2CCC[C@H](N=C3NCCCN3)C2)cc1 — 0.32 log units lower, 9.32
- O=C(NC[C@H](NS(=O)(=O)c1ccccc1)C(=O)O)c1ccc(N2CCC(NC3=NCCCN3)CC2)c(Cl)c1 — within 0.2 log units, 9.77
- O=C(NC[C@H](NS(=O)(=O)c1ccccc1)C(=O)O)c1ccc(N2CCC(NC3=NCCCN3)CC2)c(O)c1 — 0.28 log units lower, 9.36
- O=C(NC[C@H](NS(=O)(=O)c1ccccc1)C(=O)O)c1ccc(N2CCC(NC3=NCCCN3)CC2)c(F)c1 — 0.20 log units lower, 9.44

System: not listed separately
Experiment: Inhibition of Escherichia coli H560 DNA gyrase mediated DNA cleavage
Details: not given

Point of comparison: `Cc1c(N2CC[C@H](N)C2)c(F)cn2c(=O)c(C(=O)O)cc(C3CC3)c12` [ABT-719], IC50 0.03 µg/mL (≈ 0.0869 µM). Against it:
- O=C(O)c1cc(C2CC2)c2cc(N3CCNCC3)c(F)cn2c1=O — 5-fold higher, 0.15 µg/mL (≈ 0.453 µM)

Target: Macrophage metalloelastase (Homo sapiens, UniProt P39900)
Experiment: Inhibition of MMP12
Details: not given

Chain of Macrophage metalloelastase (P39900 whole entry): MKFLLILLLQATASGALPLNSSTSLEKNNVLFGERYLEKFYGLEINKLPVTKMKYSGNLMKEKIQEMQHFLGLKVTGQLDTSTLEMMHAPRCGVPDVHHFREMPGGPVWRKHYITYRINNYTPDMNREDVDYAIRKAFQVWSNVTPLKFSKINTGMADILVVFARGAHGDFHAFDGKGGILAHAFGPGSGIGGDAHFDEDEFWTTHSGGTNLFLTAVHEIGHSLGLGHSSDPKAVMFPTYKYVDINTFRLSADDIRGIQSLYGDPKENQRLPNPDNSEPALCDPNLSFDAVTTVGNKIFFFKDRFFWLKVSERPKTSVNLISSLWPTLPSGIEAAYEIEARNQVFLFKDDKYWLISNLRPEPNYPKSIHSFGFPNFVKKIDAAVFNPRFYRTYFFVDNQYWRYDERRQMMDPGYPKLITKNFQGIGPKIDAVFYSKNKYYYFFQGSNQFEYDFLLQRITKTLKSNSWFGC

Point of comparison: `O=C(O)Cc1ccc(CNC(=O)c2cc(-c3ccc(-c4ccccc4)cc3)cs2)cc1`, pIC50 7.15. Against it:
- O=C(O)Cc1ccc(CNC(=O)c2cc(-c3ccc(-c4ccccc4O)cc3)cs2)cc1 — within 0.2 log units, 7.05
